Laboratory results published in ChEMBL document CHEMBL5614437, “Antibacterial and Anti-Inflammatory Activity of Branched Peptides Derived from Natural Host Defense Sequences” (J Med Chem, 2024).
Active and inactive are the calls of the source. No cut-off for these calls is given here. Bridges are numbered along the chain shown (N, C = ends). Roman numbers before positions name the chains, in order.

Assays:
[1] = system: Erythrocyte; assay: Hemolytic activity in human RBC assessed as hemolysis at ~15 uM incubated for 2 hrs by absorbance based plate reader analysis; format: toxicity, cell-based
[2] = system: RAW264.7; assay: Cytotoxicity against mouse RAW264.7 cells assessed as cell killing incubated for 4 to 24 hrs by crystal violet staining based analysis; format: toxicity; details: time 4-24 hrs
[3] = system: Cell membrane; assay: Induction of cytoplasmic membrane permeabilization in Escherichia coli TG1 assessed as enlargement of bacterial cells at 2 times of MIC measured after 30 to 60 mins by SEM analysis; format: cell membranes; details: time 30-60 min
[4] = system: Klebsiella pneumoniae; assay: Antibacterial activity against colistin-resistant Klebsiella pneumoniae incubated for 12 hrs by microdilution method; format: functional
[5] = system: Cell membrane; assay: Induction of cytoplasmic membrane permeabilization in Escherichia coli TG1 assessed as loss of surface smoothness at 2 times of MIC measured after 30 to 60 mins by SEM analysis; details: time 30-60 min
[6] = system: Cell membrane; assay: Induction of cytoplasmic membrane permeabilization in Escherichia coli TG1 assessed as increase in fluorescence at MIC measured after 40 to 50 mins by PI/Sytox green dye based analysis; details: time 40-50 min
[7] = Stability of compound in human serum at 180 uM measured after 4 hrs by HPLC-MS analysis; format: ADME, cell-free
[8] = system: RAW264.7; assay: Cytotoxicity against mouse RAW264.7 cells assessed as cell death at 1 log concentration incubated for 4 to 24 hrs by crystal violet staining based analysis relative to control; format: toxicity; details: time 4-24 hrs
[9] = system: Cell membrane; assay: Induction of cytoplasmic membrane permeabilization in Escherichia coli TG1 assessed as wrinkling of membrane surface at 2 times of MIC measured after 30 to 60 mins by SEM analysis; details: time 30-60 min
[10] = system: Escherichia coli; assay: Antibacterial activity against Escherichia coli clinical isolate LC711/14 incubated for 12 hrs by microdilution method; format: functional
[11] = system: Escherichia coli; assay: Antibacterial activity against Escherichia coli TG1 incubated for 12 hrs by microdilution method; format: functional
[12] = Selectivity ratio of biofilm prevention concentration for antibiofilm activity against Escherichia coli TG1 to MIC for antibacterial activity against Escherichia coli TG1; format: functional
[13] = system: Klebsiella pneumoniae; assay: Antibiofilm activity against Klebsiella pneumoniae ATCC43816 assessed as inhibition of biofilm formation incubated for 24 hrs by absorbance based analysis; format: functional
[14] = system: Lipopolysaccharide (LPS); assay: Binding affinity to biotin-tagged LPS (unknown origin) preincubated for 30 mins followed by compound addition and 30 mins of incubation with streptavidin-POD by ELISA based microplate spectrophotometer; format: subcellular; details: dose 1-10 µg/ml
[15] = system: Enterococcus faecalis; assay: Antibacterial activity against Enterococcus faecalis 51299 incubated for 12 hrs by microdilution method; format: functional
[16] = system: Klebsiella pneumoniae; assay: Antibiofilm activity against 24 hrs preformed biofilm in Klebsiella pneumoniae ATCC43816 assessed as reduction in preformed biofilm incubated for 14 hrs by absorbance based analysis; format: functional
[17] = system: Staphylococcus aureus; assay: Antibacterial activity against Staphylococcus aureus USA300 incubated for 12 hrs by microdilution method; format: functional
[18] = system: Escherichia coli; assay: Antibiofilm activity against 24 hrs preformed biofilm in Escherichia coli TG1 assessed as reduction in preformed biofilm incubated for 14 hrs by absorbance based analysis; format: functional
[19] = system: Cell membrane; assay: Induction of cytoplasmic membrane permeabilization in Escherichia coli TG1 assessed as increase in fluorescence incubated for 100 to 120 mins by PI/Sytox green dye based analysis; details: dose 1.5-3 µM, time 100-120 min
[20] = Stability of compound in human serum at 180 uM measured after 24 hrs by HPLC-MS analysis; format: ADME, cell-free
[21] = system: Pseudomonas aeruginosa; assay: Antibacterial activity against Pseudomonas aeruginosa ATCC 27853 incubated for 12 hrs by microdilution method; format: functional
[22] = system: Klebsiella pneumoniae; assay: Antibacterial activity against Klebsiella pneumoniae ATCC43816 incubated for 12 hrs by microdilution method; format: functional
[23] = system: Escherichia coli; assay: Antibiofilm activity against Escherichia coli TG1 assessed as inhibition of biofilm formation incubated for 24 hrs by absorbance based analysis; format: functional
[24] = system: Cell membrane; assay: Induction of cytoplasmic membrane permeabilization in Escherichia coli TG1 assessed as increase in fluorescence at 2 times of MIC measured after 10 mins by PI/Sytox green dye based analysis; format: cell membranes
[25] = system: Erythrocyte; assay: Hemolytic activity in human RBC assessed as hemolysis at 5 uM incubated for 2 hrs by absorbance based plate reader analysis; format: toxicity, cell-based
[26] = system: Enterococcus faecium; assay: Antibacterial activity against vancomycin-resistant Enterococcus faecium clinical isolate FI-48 incubated for 12 hrs by microdilution method; format: functional
[27] = system: Escherichia coli; assay: Antibacterial activity against Escherichia coli TG1 transfected with pGEN-luxCDABE plasmid infected in female BALB/C mouse model of skin infection assessed as reduction in bacterial burden at 16 mg/kg, SC pre-infected with bacteria for 2 hrs followed by compound administration and measured on day 2 by luminescence imaging analysis relative to control; format: functional; set-up: scale not given: the % may be the effect or the level left; details: time 2 day
[28] = system: Cell membrane; assay: Disruption of outer membrane integrity in Escherichia coli TG1 assessed as formation of blisters outside the cell measured after 60 mins by TEM analysis; format: cell membranes
[29] = system: Mus musculus; assay: Anti-inflammatory activity in female BALB/C skin infection mouse model infected with Escherichia coli TG1 transfected with pGEN-luxCDABE plasmid assessed as reduction in monocyte number in skin at 16 mg/kg, SC pre-infected with bacteria for 2 hrs followed by compound administration and measured after 3 days by DAPI staining based immunohistochemical analysis; format: functional, organism-based; details: time 3.0 day
[30] = system: Pseudomonas aeruginosa; assay: Antibacterial activity against Pseudomonas aeruginosa clinical isolate FI-29 expressing GES-5 beta-lactamase incubated for 12 hrs by microdilution method; format: functional
[31] = system: Cell membrane; assay: Disruption of outer membrane integrity in Escherichia coli TG1 assessed as loss of double layer integrity measured after 60 mins by TEM analysis
[32] = system: Pseudomonas aeruginosa; assay: Antibacterial activity against Pseudomonas aeruginosa clinical isolate FI-25 expressing VIM-1 metallo-beta-lactamase incubated for 12 hrs by microdilution method; format: functional
[33] = system: Escherichia coli; assay: Antibacterial activity against Escherichia coli TG1 transfected with pGEN-luxCDABE plasmid infected in female BALB/C mouse model of skin infection assessed as reduction in bacterial burden at 16 mg/kg, SC pre-infected with bacteria for 2 hrs followed by compound administration and measured after 2 to 3 days by luminescence imaging analysis; format: functional, organism-based; details: time 2-3 day

Substance	LC50 [2]	Activity [3]	MIC [4] [µM]	Activity [5]	Activity [6]	Stability [7]	Activity [8] [%]	Activity [9]	MIC [10] [µM]	MIC [11] [µM]	IC20 [13] [µM]	Activity [14]	MIC [15] [µM]	MBIC80 [16] [µM]	MIC [17] [µM]	MBIC80 [18] [µM]	Activity [19]	Stability [20]	MIC [21] [µM]	MIC [22] [µM]	other results
I: H-GRFKRFRKKLKK-NH2 / II: H-GRFKRFRKKLK / III: H-GRFKRFRKKL / IV: H-GRFKRFRKKL (amide I:11-IV:C, I:12-II:C, II:11-III:C)	1.258 10^-5M	Active	> 25	Active	Active	Stable	100	Active	> 25	6	50	Dose-Dependent Effect	> 25	50	> 25	50	Dose-Dependent Effect	Unstable	6	25	Activity [1]: Toxic; Selectivity ratio [12]: 4; IC20 [23]: 25 µM; Activity [24]: Active
I: H-TLLKKVLKAAAKKK-NH2 / II: H-TLLKKVLKAAAKK / III: H-TLLKKVLKAAAK / IV: H-TLLKKVLKAAAK (amide I:13-IV:C, I:14-II:C, II:13-III:C)	4.405 10^-7M	Active	6	Active	Active	Stable	100	Active	3	1.5	50	Dose-Dependent Effect	25	50	> 25	3	Dose-Dependent Effect	Stable	6	6	Activity [25]: Toxic; MIC [26]: 6 µM; Activity [27]: 75%; Activity [28]: Active; Activity [29]: Active; MIC [30]: 12 µM; Activity [31]: Active; MIC [32]: 12 µM; Activity [33]: Active; IC20 [23]: 1.5 µM; Activity [24]: Active
